“And” between values parts separate entries of the source, which are not always exact repeats. Identical values can stand only once. No end group written: not given here.
Assays:
Type in all cases: cell-based
(F1.35L)-Mm-MRGPRX1 = (F1.35L)-Mm-MRGPRX1 (Macaca mulatta, UniProt A0A5F7ZSN8, F30L); test: Intracellular Ca2+ mobilization in COS-7 cells, Gαq16-fused receptor, (F1.35L)-Mm-MRGPRX1; conditions: BAM8–22; COS-7, Ca2+ mobilization; mean ± standard error of three replicate analyses; read-out: Maximal response
Excerpt: (§1) ORFs of MRGPRX1 and MRGPRX2 purchased from OriGene and Mm-MRGPRX1 synthesized in Genscript were C-terminally fused with the human Gαq16 protein as described previously ([23]). Briefly, the human Gαq16 ORF clone (OriGene) was amplified and ligated into the XbaI site of a pcDNA6 plasmid (Invitrogen). Then, MRGPRX1 and MRGPRX2 were subcloned (Table S1) into the NotI–XbaI site of the Gαq16-ligated pcDNA6 plasmids. MRGPRX1 and two mutants were constructed using the PrimeSTAR Mutagenesis Basal Kit with mutation oligos (Table S1).
(§2) COS-7 cells were purchased from American Type Culture Collection and cultured in Dulbecco's modified Eagle's medium (Nacalai Tesque) supplemented with 10% fetalbovine serum (Sigma) and maintained at 37°C under 5% CO2. Intracellular Ca^2+ mobilization was measured as previously described ([42], [43]). In brief, 5 × 10^5 COS-7 cells were spread on a 60-mm dish 1 day before transfection. […] Real-time Ca^2+ mobilization of Gαq16-fused MRGPRX1/2 was measured using a Ca5 kit (Molecular Devices) and FlexStation III according to the manufacturer’s instructions. The calcium accumulation data were analyzed using Prism, version 6 (GraphPad) and found to fit a sigmoidal concentration–response curve, and the means ± SEMs of EC50 were calculated.

MRGPRX1 WT = target: T1, MRGPRX1 WT (Homo sapiens, UniProt Q96LB2); test: Intracellular Ca2+ mobilization in COS-7 cells, Gαq16-fused receptor, wildtype MRGPRX1; conditions: BAM8–22
T1 construct: host or cells: COS-7
Excerpt: as §1, §2

(S1.43A)-MRGPRX1 = target: T2, (S1.43A)-MRGPRX1 (Homo sapiens, UniProt Q96LB2, S38A); test: Intracellular Ca2+ mobilization in COS-7 cells, Gαq16-fused receptor, (S1.43A)-MRGPRX1; conditions: BAM8–22
T2 construct: host or cells: COS-7
Excerpt: as §1, §2

(P1.35L)-MRGPRX2 = target: T3, (P1.35L)-MRGPRX2 (Homo sapiens, UniProt Q96LB1, P33L); test: Intracellular Ca2+ mobilization in COS-7 cells, Gαq16-fused receptor, (P1.35L)-MRGPRX2; conditions: COS-7, Ca2+ mobilization
T3 construct: host or cells: COS-7
T3 sequence (Q96LB1 1-330 P33L): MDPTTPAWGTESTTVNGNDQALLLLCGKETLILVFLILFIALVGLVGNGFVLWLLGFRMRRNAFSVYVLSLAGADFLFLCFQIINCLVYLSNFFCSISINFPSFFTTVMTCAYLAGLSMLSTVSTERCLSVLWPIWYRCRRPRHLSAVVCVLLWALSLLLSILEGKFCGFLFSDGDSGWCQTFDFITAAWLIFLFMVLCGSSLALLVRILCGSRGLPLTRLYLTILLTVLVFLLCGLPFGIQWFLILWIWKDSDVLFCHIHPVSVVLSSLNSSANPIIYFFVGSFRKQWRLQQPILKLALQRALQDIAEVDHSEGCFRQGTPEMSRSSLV
Protocol: COS-7 cells were purchased from American Type Culture Collection and cultured in Dulbecco's modified Eagle's medium (Nacalai Tesque) supplemented with 10% fetalbovine serum (Sigma) and maintained at 37°C under 5% CO2. Intracellular Ca^2+ mobilization was measured as previously described ([42], [43]). In brief, 5 × 10^5 COS-7 cells were spread on a 60-mm dish 1 day before transfection. About 10 μg of GPCR expression vector were transfected into the cells using Lipofectamine 2000 (Thermo Fisher Scientific) according to the manufacturer’s instructions. After the 24-h incubation, 6 × 10^4 cells per well were respread on a 96-well plate for the following assay. […] Real-time Ca^2+ mobilization of Gαq16-fused MRGPRX1/2 was measured using a Ca5 kit (Molecular Devices) and FlexStation III according to the manufacturer’s instructions. The calcium accumulation data were analyzed using Prism, version 6 (GraphPad) and found to fit a sigmoidal concentration–response curve, and the means ± SEMs of EC50 were calculated.

(L1.35P)-MRGPRX1 = target: T4, (L1.35P)-MRGPRX1 (Homo sapiens, UniProt Q96LB2, L30P); test: Intracellular Ca2+ mobilization in COS-7 cells, Gαq16-fused receptor, (L1.35P)-MRGPRX1
T4 construct: host or cells: COS-7
Excerpt: as §1, §2

Mm-MRGPRX1 WT = target: T5, Mm-MRGPRX1 WT (Macaca mulatta, UniProt A0A5F7ZSN8); test: Intracellular Ca2+ mobilization in COS-7 cells, Gαq16-fused receptor, intact Mm-MRGPRX1; conditions: BAM8–22
T5 construct: host or cells: COS-7
Excerpt: as §1, §2

[1] = target: T6, (L1.35P, I3.24F, W4.61G)-MRGPRX1 (Homo sapiens, UniProt Q96LB2, I94F/L30P/W158G); test: Intracellular Ca2+ mobilization in COS-7 cells, Gαq16-fused receptor, (L1.35P, I3.24F, W4.61G)-MRGPRX1
T6 construct: host or cells: COS-7
Excerpt: as §1
(§3) COS-7 cells were purchased from American Type Culture Collection and cultured in Dulbecco's modified Eagle's medium (Nacalai Tesque) supplemented with 10% fetalbovine serum (Sigma) and maintained at 37°C under 5% CO2. Intracellular Ca^2+ mobilization was measured as previously described ([42], [43]). In brief, 5 × 10^5 COS-7 cells were spread on a 60-mm dish 1 day before transfection. About 10 μg of GPCR expression vector were transfected into the cells using Lipofectamine 2000 (Thermo Fisher Scientific) according to the manufacturer’s instructions. After the 24-h incubation, 6 × 10^4 cells per well were respread on a 96-well plate for the following assay. Each MRGPRX mutant fused with human Gαq16 for expression at the cell membrane was confirmed by immunostaining using the anti-Gαq16 antibody (Ori Gene TA318890) (Fig. S5). SP (PEPTIDE […]) and BAM8–22 (Tocris Bioscience) were used for the assays. Real-time Ca^2+ mobilization of Gαq16-fused MRGPRX1/2 was measured using a Ca5 kit (Molecular Devices) and FlexStation III according to the manufacturer’s instructions. The calcium accumulation data were analyzed using Prism, version 6 (GraphPad) and found to fit a sigmoidal concentration–response curve, and the means ± SEMs of EC50 were calculated.

(I3.24F, W4.61G)-MRGPRX1 = target: T7, (I3.24F, W4.61G)-MRGPRX1 (Homo sapiens, UniProt Q96LB2, I94F/W158G); test: Intracellular Ca2+ mobilization in COS-7 cells, Gαq16-fused receptor, (I3.24F, W4.61G)-MRGPRX1
T7 construct: host or cells: COS-7
Excerpt: as §1, §3

[2] = target: (I3.24F, W4.61G)-Mm-MRGPRX1 (Macaca mulatta, UniProt A0A5F7ZSN8, I94F/W158G); test: Intracellular Ca2+ mobilization in COS-7 cells, Gαq16-fused receptor, (I3.24F, W4.61G)-Mm-MRGPRX1; conditions: SP
Excerpt: as §1, §2

[3] = COS-7, Ca2+ mobilization, mean ± standard error of three replicate analyses, read-out: Maximal response
[4] = COS-7, Gαq16-fused, Ca2+ mobilization, three replicate analyses
[5] = COS-7, SP, compared with intact MRGPRX2, mean ± standard error of three replicate analyses, read-out: Maximal response (Emax)
[6] = SP, COS-7, Gαq16-fused, Ca2+ mobilization, three replicate analyses

(I3.24F, W4.61G)-Mm-MRGPRX1, sequence (A0A5F7ZSN8 1-322 I94F/W158G): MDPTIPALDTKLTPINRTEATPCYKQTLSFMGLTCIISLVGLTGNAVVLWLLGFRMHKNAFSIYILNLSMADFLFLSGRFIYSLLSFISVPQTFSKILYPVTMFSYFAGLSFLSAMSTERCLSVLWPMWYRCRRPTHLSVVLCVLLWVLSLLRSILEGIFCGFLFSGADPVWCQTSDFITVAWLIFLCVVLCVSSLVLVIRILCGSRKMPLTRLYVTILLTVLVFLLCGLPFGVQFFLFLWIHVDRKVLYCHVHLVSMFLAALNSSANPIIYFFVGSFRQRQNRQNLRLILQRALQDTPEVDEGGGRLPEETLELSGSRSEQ
T6 sequence (Q96LB2 whole entry L30P/I94F/W158G, the tested form may be a part): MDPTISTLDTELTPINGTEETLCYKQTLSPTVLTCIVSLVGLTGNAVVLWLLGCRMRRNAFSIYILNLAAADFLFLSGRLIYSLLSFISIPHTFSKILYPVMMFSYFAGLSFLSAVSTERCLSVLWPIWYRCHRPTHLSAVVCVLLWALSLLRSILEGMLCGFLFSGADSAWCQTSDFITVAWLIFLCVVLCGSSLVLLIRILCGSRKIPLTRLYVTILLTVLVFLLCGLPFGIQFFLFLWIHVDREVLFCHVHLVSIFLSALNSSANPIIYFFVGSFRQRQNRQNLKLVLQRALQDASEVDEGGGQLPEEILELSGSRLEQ
T7 sequence (Q96LB2 whole entry I94F/W158G, the tested form may be a part): as the sequence (Q96LB2 whole entry L30P/I94F/W158G, the tested form may be a part) above, with P30L counted along it
T1 sequence (Q96LB2 whole entry, the tested form may be a part): as the sequence (Q96LB2 whole entry L30P/I94F/W158G, the tested form may be a part) above, with P30L, F94I, G158W counted along it
T2 sequence (Q96LB2 whole entry S38A, the tested form may be a part): as the sequence (Q96LB2 whole entry L30P/I94F/W158G, the tested form may be a part) above, with P30L, S38A, F94I, G158W counted along it
T4 sequence (Q96LB2 whole entry L30P, the tested form may be a part): as the sequence (Q96LB2 whole entry L30P/I94F/W158G, the tested form may be a part) above, with F94I, G158W counted along it
T5 sequence (A0A5F7ZSN8 1-322): as the sequence (A0A5F7ZSN8 1-322 I94F/W158G) above, with F94I, G158W counted along it
(F1.35L)-Mm-MRGPRX1, sequence (A0A5F7ZSN8 1-322 F30L): as the sequence (A0A5F7ZSN8 1-322 I94F/W158G) above, with F30L, F94I, G158W counted along it

Emax ((F1.35L)-Mm-MRGPRX1)	Emax (MRGPRX1 WT; [3])	EC50 (MRGPRX1 WT; [4])	Emax ((S1.43A)-MRGPRX1; [3])	EC50 ((S1.43A)-MRGPRX1; [4])	Response to 3 μM BAM8–22 ((P1.35L)-MRGPRX2)	Response to 3 μM BAM8–22, of that of wildtype MRGPRX1 ((L1.35P)-MRGPRX1; 3 μM BAM8–22, COS-7, Ca2+ mobilization)	EC50 ((L1.35P)-MRGPRX1; BAM8–22, COS-7, Gαq16-fused, Ca2+ mobilization, three replicate analyses)	Emax (Mm-MRGPRX1 WT; [3])	EC50 (Mm-MRGPRX1 WT; [4])	Molecule	EC50 compared with MRGPRX2-SP (in words) ([1]; COS-7, Ca2+ mobilization)	Emax [1, 5]	EC50 [1, 6]	EC50 compared with MRGPRX2-SP (in words) ((I3.24F, W4.61G)-MRGPRX1; COS-7, Ca2+ mobilization)	Emax ((I3.24F, W4.61G)-MRGPRX1; [5])	EC50 ((I3.24F, W4.61G)-MRGPRX1; [6])	Emax [2, 3]	EC50 [2, 4]
100 ± 1.94%	100 ± 7.78%	170 nM	102 ± 9.64%	200 nM	30.23 ± 1.08%	48.48 ± 1.08%	3160 nM	66.5 ± 2.91%	2570 nM	VGRPEWWMDYQKRYG [BAM8–22, bovine adrenal medulla peptide 8–22]	–	–	–	–	–	–	–	–
–	–	–	–	–	–	–	–	–	–	CSCC[C@H](NC(=O)[C@H](CC(C)C)NC(=O)CNC(=O)[C@H](Cc1ccccc1)NC(=O)[C@H](Cc1ccccc1)NC(=O)[C@H](CCC(N)=O)NC(=O)[C@H](CCC(N)=O)NC(=O)[C@@H]1CCCN1C(=O)[C@H](CCCCN)NC(=O)[C@@H]1CCCN1C(=O)[C@@H](N)CCCNC(=N)N)C(N)=O [SP, substance P]	comparable to that of MRGPRX2-SP	39.5 ± 3%	1660 nM	comparable to that of MRGPRX2-SP	42.1 ± 2.28%	2240 nM	100 ± 5.28%	200 nM and 690 nM

From PMC11910321, “Evolutionary scenarios for the specific recognition of nonhomologous endogenous peptides by G protein–coupled receptor paralogs” (The Journal of Biological Chemistry, 2024)
